Test results published in PMC6368365, “Didehydro-Cortistatin A Inhibits HIV-1 by Specifically Binding to the Unstructured Basic Region of Tat” (mBio, 2019).

Tested on: NL4-3 strain in CDK8/CDK19 knockdown cells
Assay: NL4-3 infection of CDK8/CDK19 knockdown HeLa CD4 cells
Format: cell-based, HIV-1
Conditions: dCA 200 nM, CDK8, CDK19 or CDK8/CDK19 knockdown; viral mRNA and p24
Method: The only other known ligand for dCA is CDK8. […] As such, virus-like particles (VLPs) expressing short hairpin RNAs (shRNAs) against CDK8, CDK19, CDK8/CDK19, or the shRNA control were transduced into HeLa CD4 cells. Stabilization of the knockdown was performed by puromycin selection of the populations over a 2-week period. Both RT-qPCR and Western blotting confirmed successful knockdown of CDK8/CDK19 proteins (Fig. 4A and B). These cells were then infected with NL4-3 and treated or not with dCA, and production of viral RNA and p24 in the supernatant were assessed 72 hours later. […]
HeLa CD4 cells were transduced with VLPs expressing shRNAs against CDK8, CDK19, or both and puromycin selected to stabilize knockdown (KD). […], mRNA, DNA, and p24 capsid in supernatant were collected and measured. (A and B) CDK8 mRNA and CDK19 mRNA expression was assessed by qRT-PCR and normalized to GAPDH mRNA. […] (C) Protein expression of CDK8 and CDK19 was analyzed 72 hours postinfection by Western blotting. […] (D) Viral mRNA production measured by qRT-PCR using primers against the Nef region was measured as a function of total integrated proviral DNA. […] Statistical significance was determined using one-way ANOVA with post hoc Tukey’s test. ns, not significant; ns^a, DMSO KD CDK19 versus dCA KD CDK19. *, P < 0.01; ***, P < 0.0001; **, P < 0.001. […]

In the case of `CN(C)C1CC23CCC4(O2)C(=CCC2(C)C(c5ccc6ccncc6c5)=CCC24)C=C3C(O)C1O` (stereo not shown) [dCA, didehydro-cortistatin A], the “dependence of anti-HIV activity on CDK8” value is reported as “does not mediate its anti-HIV activity through CDK8 inhibition”.
